Test results from PMC10321576, “Cyclic peptides target the aromatic cage of a PHD-finger reader domain to modulate epigenetic protein function” (Chemical Science, 2023).
Where two headings read alike, the source gives them in different places. Peptide text beside a SMILES is read from it.

Key:
Assay in all cases: ITC binding
HisTrx-KDM7B PHD = biological target: T1, HisTrx-KDM7B PHD (Homo sapiens, UniProt Q9UPP1)
T1 construct: KDM7B 1-66; made in house
T1 sequence (Q9UPP1 1-66 isoform Q9UPP1-2): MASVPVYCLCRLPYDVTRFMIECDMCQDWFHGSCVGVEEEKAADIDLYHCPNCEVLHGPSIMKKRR
Experimental: Figure S8. ITC titration curves for His-Trx-KDM7B PHD.
Top panels are raw heat of injection, bottom panels are normalised data fitted to 1:1 binding model.
His-Trx = His6+thioredoxin. For […]
results of fit and conditions see Figure S10. […]
Figure S10. ITC results: Tabulated values from 1:1 binding model and conditions ITC buffer = 50 mM HEPES, 100 mM NaCl, pH 7.4, 0.2 µm filtered), at 25 °C. Dual = PHD+JmjC. HisTrx = His 6+thioredoxin tag, GST = glutathione S -transferase tag, ZB = Z -basic tag. Syringe contained peptide solution in buffer. Cell contained protein solution in buffer.
(§1) (1 picture or pasted object on this page, not shown here)

KDM7B Dual = biological target: T2, KDM7B Dual (Homo sapiens, UniProt Q9UPP1)
T2 construct: Dual = PHD+JmjC; made in house
Experimental: (§2) Figure S10. ITC results: Tabulated values from 1:1 binding model and conditions
(§3) ITC buffer = 50 mM HEPES, 100 mM NaCl, pH 7.4, 0.2 µm filtered), at 25 °C. Dual = PHD+JmjC. HisTrx
(§4) = His 6+thioredoxin tag, GST = glutathione S -transferase tag, ZB = Z -basic tag. Syringe contained
(§5) peptide solution in buffer. Cell contained protein solution in buffer.
as §1

KDM7B PHD = biological target: T3, KDM7B PHD (Homo sapiens, UniProt Q9UPP1)
T3 construct: KDM7B 1-66; made in house
T3 sequence (Q9UPP1 1-66 isoform Q9UPP1-2): T1 sequence (Q9UPP1 1-66 isoform Q9UPP1-2)
Experimental: as §2, §3, §4, §5, §1

KDM7C PHD = biological target: T4, KDM7C PHD (Homo sapiens, UniProt O75151); settings: for Kd: 1:1 binding model
T4 construct: KDM7C 1-67; made in house
T4 sequence (O75151 1-67): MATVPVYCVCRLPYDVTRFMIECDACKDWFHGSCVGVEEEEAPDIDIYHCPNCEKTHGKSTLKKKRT
Experimental: as §2, §3, §4, §5, §1

[1] = 50 mM HEPES, 100 mM NaCl, pH 7.4, 25 °C, 1:1 binding model

T2 sequence (Q9UPP1 37-483 limits assumed): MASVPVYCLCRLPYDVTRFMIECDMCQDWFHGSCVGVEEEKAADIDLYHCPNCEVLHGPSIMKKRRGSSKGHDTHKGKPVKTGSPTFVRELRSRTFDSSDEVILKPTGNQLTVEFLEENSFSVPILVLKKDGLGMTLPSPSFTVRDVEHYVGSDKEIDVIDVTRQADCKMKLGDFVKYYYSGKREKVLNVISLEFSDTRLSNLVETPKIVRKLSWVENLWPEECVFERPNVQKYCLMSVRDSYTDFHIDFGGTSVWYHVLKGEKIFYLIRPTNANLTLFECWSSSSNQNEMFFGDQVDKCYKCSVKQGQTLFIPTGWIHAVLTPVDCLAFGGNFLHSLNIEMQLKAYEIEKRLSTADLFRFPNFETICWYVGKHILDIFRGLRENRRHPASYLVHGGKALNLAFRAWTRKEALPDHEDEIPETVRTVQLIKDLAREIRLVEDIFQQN

## CC(C)C[C@@H]1NC(=O)[C@H](Cc2ccc(O)cc2)NC(=O)[C@H](Cc2ccc(O)cc2)NC(=O)CSC[C@@H](C(N)=O)NC(=O)[C@H]([C@@H](C)O)NC(=O)[C@H](CCCNC(=N)N)NC(=O)[C@H](Cc2ccccc2)NC(=O)[C@H](C(C)C)NC(=O)[C@H](CO)NC(=O)[C@@H]2CCCN2C(=O)[C@H](Cc2ccc(O)cc2)NC(=O)[C@@H]2CCCN2C(=O)[C@H](Cc2c[nH]cn2)NC(=O)[C@H]([C@@H](C)O)NC1=O [OC9] (HELM PEPTIDE1{[O=C(C[*:3])[*:2]].Y.Y.L.T.H.P.Y.P.S.V.F.R.T.C.[am]}$PEPTIDE1,PEPTIDE1,1:R3-15:R3$$$V2.0)
HisTrx-KDM7B PHD; 50 mM HEPES, 100 mM NaCl, pH 7.4, 25 °C, 1:1 binding model, His6+thioredoxin tag, read-out: ITC KD, HisTrx-KDM7B PHD
  Kd: 8.27 nM
HisTrx-KDM7B PHD; 25 °C
  ITC ΔH, HisTrx-KDM7B PHD: -60.0 ± 1.3 kJ mol -1
HisTrx-KDM7B PHD; read-out: ITC pKD, HisTrx-KDM7B PHD (converted)
  Kd: 7.94 nM
HisTrx-KDM7B PHD; stoichiometry
  ITC N, HisTrx-KDM7B PHD: 0.86 ± 0.01
KDM7B Dual; [1]
  Kd: 10.5 nM
KDM7B Dual; 25 °C
  ITC ΔH, KDM7B Dual: -46.0 ± 1.5 kJ mol -1
KDM7B Dual; stoichiometry
  ITC N, KDM7B Dual: 0.95 ± 0.02
KDM7B PHD; [1]
  Kd: 11.7 nM
KDM7B PHD; 25 °C
  ITC ΔH, KDM7B PHD: -46.2 ± 1.2 kJ mol -1
KDM7B PHD; stoichiometry
  ITC N, KDM7B PHD: 0.99 ± 0.01
KDM7B PHD; vs H3_1–21K4me3
  affinity of OC9 against the KDM7 PHD-fingers greater than the natural histone peptide ligand: at least 10 fold
KDM7C PHD; 50 mM HEPES, 100 mM NaCl, pH 7.4, 25 °C
  Kd: 9.56 nM
KDM7C PHD
  Kd: 10 ± 4 nM
KDM7C PHD; 25 °C
  ITC ΔH, KDM7C PHD: -62.0 ± 1.0 kJ mol -1
KDM7C PHD; stoichiometry
  ITC N, KDM7C PHD: 1.09 ± 0.01
